Reference: US20260083704A1, “LXR MODULATORS WITH BICYCLIC CORE MOIETY FOR TREATING DYSLIPIDEMIAS” (OrsoBio, Inc., priority 2022, published 2026)
Read-outs that look alike come from different tables or passages of the source.

Assays:
[1] = biological target: T1, GST-LXRβ ligand-binding domain (Homo sapiens, UniProt P55055); test: TR-FRETβ activity assay (NCoA3 coactivator peptide recruitment); assay type: biochemical; conditions: 1 μM 24(S)-25-epoxycholesterol prestimulation
T1 construct: amino acids 156-461; NP009052; made in house; host or cells: E. coli
T1 sequence (P55055 156-460 limits assumed): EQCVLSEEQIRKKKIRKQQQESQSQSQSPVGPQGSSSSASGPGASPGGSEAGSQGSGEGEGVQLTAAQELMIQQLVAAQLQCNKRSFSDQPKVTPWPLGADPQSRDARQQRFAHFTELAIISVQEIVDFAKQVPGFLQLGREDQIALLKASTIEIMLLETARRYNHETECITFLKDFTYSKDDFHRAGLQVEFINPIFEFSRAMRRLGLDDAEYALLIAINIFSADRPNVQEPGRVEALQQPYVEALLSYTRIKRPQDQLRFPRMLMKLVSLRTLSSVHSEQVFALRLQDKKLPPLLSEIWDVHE
Method in brief: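 E. coli-expressed GST-LXRβ LBD (aa 156-461, 76 nM) with biotinylated NCoA3 peptide (400 nM) in Tris/HCl pH 6.8 containing 1 μM 24(S)-25-epoxycholesterol agonist. Compounds tested at 50 μM down to 0.002 μM in triplicate. TR-FRET (Tb cryptate/XL665, ex 340, em 615/665 nm) read after 1 h at 4° C.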

LXRβ [2] = biological target: T2, LXRβ (Homo sapiens, UniProt P55055); test: LXR Gal4 reporter transient transfection assay (mammalian two-hybrid, HEK293), LXRβ; assay type: cell-based; conditions: ligand-binding domain (LBD) of LXRβ, HEK293; read-out: LBD-M2H Gal4β
T2 construct: LXRβ (amino acids 156-461); expressed in transfected cells; host or cells: HEK293
T2 sequence (P55055 156-460): T1 sequence (P55055 156-460 limits assumed)
Description: LXRα and LXRβ activity status was determined via detection of interaction with coactivator and corepressor proteins in mammalian two-hybrid experiments (M2H). For this, via transient transfection the full length (FL) proteins of LXRα (amino acids 1-447; NP005684; SEQ ID NO:1) or LXRβ-(amino acids 1-461; NP009052; SEQ ID NO:2) or the ligand-binding domains (LBD) of LXRα (amino acids 155-447 SEQ ID NO:3) or LXRβ (amino acids 156-461; SEQ ID NO:4) were expressed from pCMV-AD (Stratagene) as fusions to the transcriptional activation domain of NFkB. As cofactors, domains of either the steroid receptor coactivator 1 (SRC1; amino acids 552-887; SEQ ID NO:5) or of the corepressor NCoR (amino acids 1906-2312; NP006302; SEQ ID NO:6) were expressed as fusions to the DNA binding domain of the yeast transcription factor GAL4 (from pCMV-BD; Stratagene). Interaction was monitored via activation of a coexpressed Firefly Luciferase Reporter gene under control of a promoter containing repetitive GAL4 response elements (vector pFRLuc; Stratagene). Transfection efficiency was controlled via cotransfection of constitutively active pRL-CMV Renilla reniformis luciferase reporter (Promega). HEK293 cells were grown in minimum essential medium (MEM) with 2 mM L-glutamine and Earle's balanced salt solution supplemented with 8.3% fetal bovine serum, 0.1 mM non-essential amino acids, 1 mM sodium pyruvate, at 37° C. in 5% CO2. 3.5×10^4 cells/well were plated in 96-well cell culture plates in growth medium supplemented with 8.3% fetal bovine serum for 16-20 h to ˜90% confluency. For transfection, medium was taken off and LXR and cofactor expressing plasmids as well as the reporter plasmids are added in 30 μL OPTIMEM/well including polyethylene-imine (PEI) as vehicle. Typical amounts of plasmids transfected/well: pCMV-AD-LXR (5 ng), pCMV-BD-cofactor (5 ng), pFR-Luc (100 ng), pRL-CMV (0.5 ng). Compound stocks were prepared in DMSO, prediluted in MEM to a total volume of 120 μL, and added 4 h after addition of the transfection mixture (final vehicle concentration not exceeding 0.2%). Cells were incubated for additional 16 h, lysed for 10 min in 1×Passive Lysis Buffer (Promega) and Firefly and Renilla luciferase activities were measured sequentially in the same cell extract using buffers containing D-luciferine and coelenterazine, respectively. Measurements of luminescence were done in a BMG-luminometer.
The potencies of Compound 21/3 and its analog, Compound pre-6/3, against LXRα and LXRβ were evaluated in biochemical binding assays, cellular mammalian two-hybrid (M2H) interaction assays evaluating nuclear receptor co-repressor (NCOR) recruitment, and cellular reporter assays evaluating transcriptional activity (Table 5).

LXRβ [3] = biological target: T3, LXRβ (Homo sapiens, UniProt P55055); test: as above; assay type: cell-based; set-up: LXRβ (amino acids 156-461); expressed in transfected cells; host or cells: HEK293; conditions: full length (FL) LXRβ, HEK293; read-out: FL-M2H Gal4β
T3 sequence (P55055 1-460): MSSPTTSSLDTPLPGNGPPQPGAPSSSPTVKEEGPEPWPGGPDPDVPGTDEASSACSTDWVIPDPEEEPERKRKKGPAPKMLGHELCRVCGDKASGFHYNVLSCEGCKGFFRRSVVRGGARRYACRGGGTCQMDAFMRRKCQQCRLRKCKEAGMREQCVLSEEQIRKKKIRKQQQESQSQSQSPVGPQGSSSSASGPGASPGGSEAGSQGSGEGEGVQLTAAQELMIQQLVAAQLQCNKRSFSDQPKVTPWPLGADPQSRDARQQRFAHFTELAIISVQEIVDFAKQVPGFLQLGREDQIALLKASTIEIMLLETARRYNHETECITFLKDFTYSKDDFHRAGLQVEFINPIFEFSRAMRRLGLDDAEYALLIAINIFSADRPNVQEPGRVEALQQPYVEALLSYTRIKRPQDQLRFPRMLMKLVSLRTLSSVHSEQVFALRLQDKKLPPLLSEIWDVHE
Method in brief: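 HEK293 cells transiently co-transfected with full-length or LBD LXRα/LXRβ fused to NFkB activation domain, GAL4-DBD-fused SRC1 or NCoR cofactor domain, GAL4-responsive firefly luciferase reporter and Renilla control. Compound added 4 h post-transfection (≤0.2% DMSO), incubated 16 h; firefly and Renilla luminescence read sequentially.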

Compound | EC50 [1] [nM] | EC50 (LXRβ [2]) [nM] | EC50 (LXRβ [3]) [nM]
Cc1ccc(S(=O)(=O)n2c(-c3ccsc3)c(-c3ccsc3C#N)c3ccccc32)cc1 [1/23] | 100 to 1000 | < 100 | –
Cc1cc(C)c(S(=O)(=O)n2c(-c3cccs3)c(-c3ccsc3C#N)c3ccccc32)c(C)c1 [1/26] | 1000 to 10000 | < 100 | –
N#Cc1sccc1-c1c(-c2cccs2)n(S(=O)(=O)c2cccc3ccccc23)c2ccccc12 [1/27] | 1000 to 10000 | < 100 | –
Cn1cnc(S(=O)(=O)n2c(-c3cccs3)c(-c3ccsc3C#N)c3ccccc32)c1 [1/28] | 1000 to 10000 | < 100 | –
COc1ccc2c(-c3ccsc3C#N)c(-c3cccs3)n(S(=O)(=O)c3ccc(Cl)cc3)c2c1 [1/40] | 1000 to 10000 | < 100 | –
N#Cc1sccc1-c1c(-c2ccccc2)n(S(=O)(=O)c2cccnc2)c2ccccc12 [1/41] | 1000 to 10000 | < 100 | –
Cc1ncc(S(=O)(=O)n2c(-c3ccccc3)c(-c3ccsc3C#N)c3ccccc32)s1 [1/42] | 1000 to 10000 | < 100 | –
N#Cc1sccc1-c1c(-c2cccc(N3CC(C(=O)O)C3)c2)n(S(=O)(=O)c2ccccc2)c2ccc(F)cc12 [3/9] | 1000 to 10000 | < 100 | –
Cc1ccc(S(=O)(=O)n2c(-c3ccc(CC(C)(C)C(=O)O)s3)c(-c3ccsc3C#N)c3ccccc32)cc1 [3/16] | 1000 to 10000 | 100 to 1000 | –
Cc1ccc(S(=O)(=O)n2c(-c3cc(C4CC4C(=O)O)cs3)c(-c3ccsc3C#N)c3ccccc32)cc1 (stereo not shown) [3/17] | 1000 to 10000 | < 100 | –
Cc1ccc(S(=O)(=O)n2c(-c3cccc(/C=C/C(=O)O)c3)c(-c3ccsc3C#N)c3ccccc32)cc1 [3/18] | 1000 to 10000 | < 100 | –
Cc1ccc(S(=O)(=O)n2c(-c3ccc(/C=C/C(=O)O)s3)c(-c3ccsc3C#N)c3ccccc32)cc1 [3/19] | 1000 to 10000 | 100 to 1000 | –
Cc1ccc(S(=O)(=O)n2c(-c3cccc(C(C)(C)C(=O)O)c3)c(-c3ccsc3C#N)c3ccccc32)cc1 [3/20] | 1000 to 10000 | < 100 | –
N#Cc1sccc1-c1c(-c2cccc(OCC(=O)O)c2)n(S(=O)(=O)c2ccc(Cl)cc2)c2ccccc12 [3/51] | 1000 to 10000 | 100 to 1000 | –
Cc1ccc(S(=O)(=O)n2c(-c3cccc(-c4cc(F)c(C(=O)O)cc4Cl)c3)c(-c3ccsc3C#N)c3cc(F)ccc32)cc1 [12/2] | 100 to 1000 | – | < 100
Cc1ccc(S(=O)(=O)n2c(-c3cccc(-c4ccc(C(=O)O)c(F)c4Cl)c3)c(-c3ccsc3C#N)c3cc(F)ccc32)cc1 [12/3] | 100 to 1000 | – | < 100
COc1cc(-c2cccc(-c3c(-c4ccsc4C#N)c4cc(F)ccc4n3S(=O)(=O)c3ccc(C)cc3)c2)c(Cl)cc1C(=O)O [12/4] | 100 to 1000 | – | < 100
COc1c(C(=O)O)ccc(-c2cccc(-c3c(-c4ccsc4C#N)c4cc(F)ccc4n3S(=O)(=O)c3ccc(C)cc3)c2)c1Cl [12/5] | < 100 | – | < 100

Compound | EC50 [1] [nM] | EC50 (LXRβ [2]) [nM] | EC50 (LXRβ [3]) [nM]
Cc1ccc(S(=O)(=O)n2c(-c3cccc(-c4cc(C(=O)O)n[nH]4)c3)c(-c3ccsc3C#N)c3cc(F)ccc32)cc1 [12/6] | 1000 to 10000 | – | 1000 to 10000
Cc1ccc(S(=O)(=O)n2c(-c3cccc(-c4cc(C(=O)O)nn4C)c3)c(-c3ccsc3C#N)c3cc(F)ccc32)cc1 [12/7] | 100 to 1000 | – | 100 to 1000
Cc1ccc(S(=O)(=O)n2c(-c3cccc(-c4cc(C(=O)O)nn4C(C)C)c3)c(-c3ccsc3C#N)c3cc(F)ccc32)cc1 [12/8] | 1000 to 10000 | – | 100 to 1000
Cc1ccc(S(=O)(=O)n2c(-c3cccc(-c4ccc5c(C(=O)O)n[nH]c5c4)c3)c(-c3ccsc3C#N)c3cc(F)ccc32)cc1 [12/9] | 100 to 1000 | – | 100 to 1000
N#Cc1cccc(C#N)c1-c1c(-c2cccc(-c3ccc(S(=O)(=O)O)cc3Cl)c2)n(S(=O)(=O)c2ccc(C(F)F)cc2)c2ccc(F)cc12 [12/10] | < 100 | – | < 100
COc1ccc(S(=O)(=O)n2c(-c3ccccc3)c(-c3cc4ccccc4nc3C#N)c3ccccc32)cc1 [20/17] | – | 100 to 1000 | –
COc1ccc(S(=O)(=O)n2c(-c3ccccc3)c(-c3c(C#N)sc4ccccc34)c3ccccc32)cc1 [20/18] | – | < 100 | –
N#Cc1sccc1-c1c(-c2cccc(-c3ccc(C(=O)O)cc3)c2)n(S(=O)(=O)c2ccc3c(c2)CCC3)c2ccc(F)cc12 [23/3] | 100 to 1000 | – | < 100
Cc1ccc(S(=O)(=O)n2c(-c3cccc(-c4cncc(C(C)(C)C(=O)O)c4)c3)c(-c3ccsc3C#N)c3ccccc32)cc1 [30/3] | – | 100 to 1000 | –
CC(C)(O)c1ccc(S(=O)(=O)n2c(-c3cccc(-c4ccc(C(=O)O)cc4Cl)c3)c(-c3ccccc3C#N)c3cc(F)ccc32)cc1 [30/16] | 1000 to 10000 | – | 100 to 1000
COC(=O)C(C)(C)N(C)C(=O)C1CN(c2cccc(-c3c(-c4ccsc4C#N)c4cc(F)ccc4n3S(=O)(=O)c3ccc(C)cc3)c2)C1 [32/2] | 100 to 1000 | – | 100 to 1000
Cc1ccc(S(=O)(=O)n2c(-c3cccc(-c4ccc(C(=O)NS(C)(=O)=O)cc4Cl)c3)c(-c3ccsc3C#N)c3cc(F)ccc32)cc1 [32/4] | < 100 | – | < 100
Cc1ccc(S(=O)(=O)n2c(-c3cccc(-c4ccc(C(=O)O)nc4C)c3)c(-c3ccsc3C#N)c3cc(F)ccc32)cc1 [36/1] | 100 to 1000 | – | < 100
Cc1ccc(S(=O)(=O)n2c(-c3cccc(-c4cccc(S(C)(=O)=Nc5nnn[nH]5)c4)c3)c(-c3ccsc3C#N)c3cc(F)ccc32)cc1 (stereo not shown) [37/1] | 100 to 1000 | – | 100 to 1000
O=C(O)c1ccc(-c2cccc(-c3c(-c4ccccc4)c4cc(F)ccc4n3S(=O)(=O)c3ccc(C(F)F)cc3)c2)c(Cl)c1 [C11/39] | 100 to 1000 | – | < 100
Cc1ccc(S(=O)(=O)n2c(-c3cccc(-c4ccc(C(C(=O)O)N(C)C)cc4Cl)c3)c(-c3ccsc3C#N)c3cc(F)ccc32)cc1 (stereo not shown) [Compound 3] | < 100 | – | < 100
Cc1ccc(S(=O)(=O)n2c(-c3cccc(C4CC4C(=O)O)c3)c(-c3ccsc3C#N)c3ncccc32)cc1 (stereo not shown) [Compound 4] | 1000 to 10000 | – | 100 to 1000
